Patent US8188268B2, “Porous crystalline saccharide, its preparation and uses” (Kabushiki Kaisha Hayashibara Seibutsu Kagaku Kenkyujo, priority 2005, dated 2012)
Like-named read-outs stand apart in the source and are kept apart here.

Tests used:
Type in all cases: physicochemical
[1] = Dissolution test against cold water at 10° C.; details: for Time required for dissolution, No. 1 / Time required for dissolution, No. 2 / Time required for dissolution, No. 3 / Time required for dissolution, No. 4 / Time required for dissolution, No. 5 / Time required for dissolution, Average: 20 ml water 10° C., about 300 rpm, 0.5 g trehalose or 0.2 g maltose; for Time required for dissolution, Average: average of 5; for Dissolution in cold water in comparison with controls: cold water 10° C.
Experimental: A dissolution test against cold water at 10° C. was carried out using the porous anhydrous crystalline trehalose prepared by treating at 70° C. for 60 min in Example 1, the porous anhydrous crystalline maltose prepared by the method in Example 3, and the porous hydrous crystalline maltose prepared by the method in Example 5, as samples. The results were compared with those of the controls, anhydrous crystalline trehalose, hydrous crystalline trehalose, and hydrous crystalline maltose.
Twenty milliliters of 10° C.-cold water was placed in a test tube with an internal diameter of 18 mm, and then stirred using a stirring bar. A crystalline saccharide sample was put into the test tube, and the time required for the complete dissolution (for the disappearance of precipitate particles) was measured. The amount of samples was set to be 0.5 g in the case of trehalose and to be 0.2 g in the case of maltose, and the stirring rate was set to be about 300 rpm in any case. The measurement of time for dissolution under the above conditions was carried out 5-times at each sample.

[2] = Oil-keeping ability with salad oil; design: key to Oil-keeping ability: (5 g salad oil / g saccharide added at endpoint) x 100; details: for Oil-keeping ability: (5 g salad oil / amount of added saccharide) x 100
Experimental: The oil-keeping ability of each crystalline saccharide was measured using the porous anhydrous crystalline trehalose prepared by treating at 70° C. for 60 min in Example 1, the control hydrous crystalline trehalose, and the control anhydrous crystalline trehalose as crystalline trehalose samples; and the porous anhydrous crystalline maltose prepared by the method in Example 3, the control hydrous crystalline β-maltose, and the control anhydrous crystalline α-maltose, and the control anhydrous crystalline β-maltose as crystalline maltose samples, and the results were compared.
The measurement of the oil-keeping ability of the crystalline saccharide was carried out according to the method disclosed in Japanese Patent Kokai No. 31,650/84. Five grams of “NISSHIN SALAD OIL”, a salad oil commercialized by Nisshin OiliO Group, Ltd., Tokyo, Japan, was placed in a 50-ml plastic container, and then gradually admixed with each powdery crystalline saccharide with stirring. […] When the amount of the mixed saccharide is further increased, the agglomerate increase in solidity and then loosen. The point that the agglomerate is loosened is estimated to be the endpoint and the oil-keeping ability was calculated using the following formula. Oil-Keeping Ability =(The amount of salad oil(5 g)/the amount of added PCS*)×100 *: Powdery crystalline saccharide tm Formula 1

[3] = Pore size distribution by the mercury filling method; details: for Median pore diameter: control maltose values are from space between particles, not pores
[4] = Specific surface area by nitrogen adsorption isotherms (BET); details: for Specific surface area: nitrogen adsorption isotherms, BET
Experimental: Specific surface area of the porous anhydrous crystalline trehalose was measured by the nitrogen adsorption isotherms using “MODEL ASAP-2400”, a specific surface area/pore size distribution analyzer commercialized by Micromeritics, Georgia, USA. […] The result was analyzed by the BET (Brunnauer, Emmet, and Teller) method. The commercial anhydrous crystalline trehalose, a reagent grade, commercialized by Hayashibara Biochemical Laboratories Inc., Okayama, Japan, was used as a control. […] Further, those pore size distribution charts are in FIG. 19. […] The results of the analysis on the specific surface area and the pore size distribution are summarized in Table 7, and the pore size distribution chart was in FIG. 24. As a control, “MALTOSE OM”, a hydrous crystalline maltose product with maltose purity of 98% or higher, produced by Hayashibara Co., Ltd., Okayama, Japan, was used.

[5] = Crystal moisture content (Karl Fischer) on moisture absorption and drying
Experimental: Hydrous crystalline saccharides were prepared from the respective porous anhydrous crystalline saccharide using the porous anhydrous crystalline trehalose, obtained by treating at 70° C. for 60 min in Example 1, and the porous anhydrous crystalline maltose, obtained by treating at 70° C. for 480 min in Example 3, as materials. About 50 g of the porous anhydrous crystalline saccharide and about 150 ml of deionized water were placed in respective container. Then, the both open containers were placed in the same closed vessel and leaved to stand at 27° C. for two days. By the treatment, the anhydrous crystalline saccharide was allowed to absorb moisture and converted into hydrous crystal. The resulting hydrous crystal was dried in a drying machine at 50° C. for one hour to remove excess moisture. The moisture contents of the porous anhydrous crystalline trehalose and the porous anhydrous crystalline maltose before and after the treatment to absorb moisture and after drying are in Table 6. The moisture content of crystals was measured by the conventional Karl Fischer's method.

[6] = Flax seed oil powder: keeping of powdery form; details: 1 part flax seed oil + 10 parts saccharide as base; listed as control hydrous crystalline trehalose
Experimental: One part by weight of flax seed oil was admixed with 10 parts by weight of the porous anhydrous crystalline trehalose, prepared by treating at 70° C. for 60 min in Example 1, and then the mixture was kneaded to make into a powdery product. In the same manner, powdery products were prepared by using “TREHA®”, hydrous crystalline trehalose commercialized by Hayashibara Shoji Inc., Okayama, Japan, and anhydrous crystalline trehalose, prepared from hydrous crystalline trehalose by drying in vacuo at a high temperature according to the conventional method, as controls. […] The flaxseed oil powder can be preferably used as a supplement.

[7] = listed as Porous anhydrous crystalline β-maltose (Present invention)
[8] = listed as porous anhydrous crystalline maltose
[9] = listed as Porous hydrous crystalline β-maltose (Present invention)
[10] = listed as porous hydrous crystalline maltose

| SMILES | Time required for dissolution, No. 1 [1] | Time required for dissolution, No. 2 [1] | Time required for dissolution, No. 3 [1] | Time required for dissolution, No. 4 [1] | Time required for dissolution, No. 5 [1] | Time required for dissolution, Average [1] | Oil-keeping ability [2] | Intrusion volume [3] | Median pore diameter [3] | Specific surface area [4] | other results |
| --- | --- | --- | --- | --- | --- | --- | --- | --- | --- | --- | --- |
| OC[C@H]1O[C@H](O[C@H]2[C@H](O)[C@@H](O)C(O)O[C@@H]2CO)[C@H](O)[C@@H](O)[C@@H]1O (mixture of isomers) [Anhydrous crystalline α-maltose (Control)] [reference compound] | 37 s | 35 s | 39 s | 38 s | 36 s | 37 s | 41.7 | (No pore) | 13.00 μm | 0.48 m^2/g | Specific surface area ([4]; listed as anhydrous crystalline α-maltose): 0.48 m^2/g |
| OC[C@H]1O[C@H](O[C@H]2[C@H](O)[C@@H](O)C(O)O[C@@H]2CO)[C@H](O)[C@@H](O)[C@@H]1O (mixture of isomers) [Anhydrous crystalline β-maltose (Control)] [reference compound] | – | – | – | – | – | – | 40 | (No pore) | 14.70 μm | 0.82 m^2/g | Specific surface area ([4]; listed as anhydrous crystalline β-maltose): 0.82 m^2/g |
| OC[C@H]1O[C@H](O[C@H]2O[C@H](CO)[C@@H](O)[C@H](O)[C@H]2O)[C@H](O)[C@@H](O)[C@@H]1O [Hydrous crystalline trehalose (Control), α-D-glucosyl α-D-glucoside] | 106 s | 130 s | 121 s | 135 s | 123 s | 123 s | 38.5 | – | – | – | Oil-keeping ability ([2]; listed as control hydrous crystalline trehalose): 38.5; Powdery form of flax seed oil powder [6]: could not keep powdery forms |
| OC[C@H]1O[C@H](O[C@H]2O[C@H](CO)[C@@H](O)[C@H](O)[C@H]2O)[C@H](O)[C@@H](O)[C@@H]1O [Porous anhydrous crystalline trehalose (treated at 50° C. fo] [α-D-glucosyl α-D-glucoside] | – | – | – | – | – | – | – | 0.22 mL/g | 0.21 μm | 3.306 m^2/g | Mode pore diameter [3]: 0.29 μm; Remarks (pores) [3]: Having clear pores |

Now from value to molecule, other results behind:

| Time required for dissolution, No. 1 [1] | Time required for dissolution, No. 2 [1] | Time required for dissolution, No. 3 [1] | Time required for dissolution, No. 4 [1] | Time required for dissolution, No. 5 [1] | Time required for dissolution, Average [1] | Oil-keeping ability [2] | Intrusion volume [3] | Median pore diameter [3] | Specific surface area [4] | SMILES | other results |
| --- | --- | --- | --- | --- | --- | --- | --- | --- | --- | --- | --- |
| 118 s | 113 s | 114 s | 119 s | 116 s | 116 s | – | (No pore) | 11.20 μm | 0.46 m^2/g | OC[C@H]1O[C@H](O[C@H]2[C@H](O)[C@@H](O)C(O)O[C@@H]2CO)[C@H](O)[C@@H](O)[C@@H]1O (mixture of isomers) [Hydrous crystalline β-maltose (Control), maltose] | Oil-keeping ability ([2]; listed as Hydrous crystalline maltose (Control)): 45.5; Specific surface area ([4]; listed as control hydrous crystalline β-maltose): 0.46 m^2/g; Specific surface area ([4]; listed as hydrous crystalline β-maltose): 0.46 m^2/g |
| – | – | – | – | – | – | – | 1.05 mL/g | 1.26 μm | 3.39 m^2/g | OC[C@H]1O[C@H](O[C@H]2[C@H](O)[C@@H](O)C(O)O[C@@H]2CO)[C@H](O)[C@@H](O)[C@@H]1O (mixture of isomers) [Porous anhydrous crystalline maltose, maltose] | Time required for dissolution, No. 1 [1, 7]: 30 s; Time required for dissolution, No. 2 [1, 7]: 31 s; Time required for dissolution, No. 3 [1, 7]: 33 s; Time required for dissolution, No. 4 [1, 7]: 29 s; Time required for dissolution, No. 5 [1, 7]: 32 s; Time required for dissolution, Average [1, 7]: 31 s; Dissolution in cold water in comparison with controls [1]: rapidly dissolved in cold water; Crystal moisture content, after drying ([5]; after moisture absorption and drying at 50° C. for one hour): 5.14 %, w/w; Crystal moisture content, before treatment ([5]; before moisture absorption): 0.32 %, w/w; Crystal moisture content, after treatment ([5]; closed vessel with water, 27° C., two days): 7.35 %, w/w; Oil-keeping ability [2, 7]: 143; Oil-keeping ability ([2]; listed as porous anhydrous crystalline β-maltose): 143; Oil-keeping ability relative to control ([2]; compared with control crystalline saccharide): about 3 folds; Pore diameter of clear peak in pore size distribution chart [3]: less than 5 μm; Intrusion volume [3, 8]: 1.05 mL/g; Specific surface area [4, 8]: 3.39 m^2/g |
| – | – | – | – | – | – | – | 0.77 mL/g | 2.82 μm | 1.39 m^2/g | OC[C@H]1O[C@H](O[C@H]2[C@H](O)[C@@H](O)C(O)O[C@@H]2CO)[C@H](O)[C@@H](O)[C@@H]1O (mixture of isomers) [Porous hydrous crystalline maltose, maltose] | Time required for dissolution, No. 1 [1, 9]: 67 s; Time required for dissolution, No. 2 [1, 9]: 66 s; Time required for dissolution, No. 3 [1, 9]: 64 s; Time required for dissolution, No. 4 [1, 9]: 68 s; Time required for dissolution, No. 5 [1, 9]: 65 s; Time required for dissolution, Average [1, 9]: 66 s; Dissolution in cold water in comparison with controls [1]: rapidly dissolved in cold water; Pore diameter of clear peak in pore size distribution chart [3]: less than 5 μm; Intrusion volume [3, 10]: 0.77 mL/g; Specific surface area relative to control crystalline saccharide ([4]; compared with control(s)): about 3 folds; Specific surface area [4, 10]: 1.39 m^2/g |
